From paper PMC6232370, “Metabolism and Bioactivation of Corynoline With Characterization of the Glutathione/Cysteine Conjugate and Evaluation of Its Hepatotoxicity in Mice” (Frontiers in Pharmacology, 2018)

How the values were obtained:
BALB/c male mice = assay: Hepatotoxicity study in mice; format: in vivo
Procedure: Thirty-six BALB/c male mice were randomly divided into four groups (nine animals per group) including control group, low (125 mg/kg), middle (250 mg/kg), and high (500 mg/kg) three dosages group. CRL was dissolved firstly in DMSO and then prepared in 0.5% carboxymethyl cellulose sodium (CMC-Na) to make a suspension of 10, 20, and 30 mg/mL and the final concentration of DMSO in the suspension was no more than 5%. CRL was administered to the mice in different groups through oral gavage. Mice in control group were given equal volume 0.5% CMC-Na (contained 5% DMSO) solution with high dosage group. Blood samples were drawn from the orbital vein using cannulation under anesthesia at 24 h after oral administration. After centrifugation at 2,000 g for 15 min, the serum samples were stored at −20°C until analysis. Then mice were euthanized by decapitation after blood collection. Samples of liver were obtained and one part of which was fixed in 10% formaldehyde for observing histological change with optical microscope. The content of ALT and AST in mice serum was detected according the operation instruction of the kit.

[1] = Tissue distribution of CRL in mice; format: in vivo; conditions: 250 mg/kg intragastric
Procedure: Thirty BALB/c male mice were fasted overnight but allowed access to water before drug administration. Five groups of mice (six mice per group) were intragastric administered a single dose of 250 mg/kg CRL. The mice in five groups were euthanized by decapitation at pre-dose, 0.5, 2, 4, and 8 h after dosing, respectively. Tissues including heart, liver, spleen, lung, kidney, and brain were dissected and washed with saline, then were blotted with filter paper and weighed accurately. The tissue samples were homogenized in ice-cold saline (1:3, w/v, g/mL). These tissue homogenates were then stored at −20°C and allowed to thaw at room temperature and vortex-mixed before processing. A 200 μL tissue sample was mixed with 5 μL IS solution (donepezil, 500 ng/mL). The mixture was deproteinized with 800 μL of acetonitrile, vortexed for 5 min, and then centrifuged at 17,000 × g for 10 min. An aliquot of 5 μL supernatant was then used for quantifying the content of CRL in each tissue by the LC-MS/MS.

[2] = test system: human A549, SK-OV-3, SK-MEL-2, and HCT15 tumor cells; design: method as in Choi et al. (2007); conditions: ref Choi et al. (2007), read-out: 50% growth inhibition values; cited from earlier work
[3] = mice, 24 h after oral administration of 125, 250, and 500 mg/kg, P > 0.05

SMILES: CN1Cc2c(ccc3c2OCO3)[C@@]2(C)[C@@H](O)Cc3cc4c(cc3[C@@H]12)OCO4 [CRL, Corynoline]
- Histopathological examination of the liver (BALB/c male mice; mice, 125, 250, and 500 mg/kg oral, 24 h): no pathological changes
- ALT in serum and livers compared with the control group (BALB/c male mice; [3]): not significantly different
- AST in serum and livers compared with the control group (BALB/c male mice; [3]): not significantly different
- Abnormal behaviors compared with control group (BALB/c male mice; mice, drug treatment groups 125–500 mg/kg oral, at about 10 min after administration, more pronounced with increasing dosage): lying on the bedding and shivering
- Body temperature of most mice (BALB/c male mice; mice, drug treatment groups 125–500 mg/kg oral, more pronounced with increasing dosage): lower than normal
- Hepatotoxicity / acute liver injury (BALB/c male mice; mice, experimental dosage 125–500 mg/kg oral): no obvious hepatotoxicity
- Dead mice after drug administration (all dosage groups) (BALB/c male mice; mouse, in vivo): three of them were dead
- Dead mice in high dosage group (BALB/c male mice; mouse, in vivo): two mice
- Dead mice in middle dosage group (BALB/c male mice; mouse, in vivo): one mouse
- Blood–brain barrier passage [1]: could traverse the blood–brain barrier
- Highest concentration level in brain ([1]; single dose, mean ± SD): 40.53 ± 20.50 µg/g
- Highest concentration level in kidney ([1]; single dose, mean ± SD): 68.73 ± 46.89 µg/g
- Highest concentration level in liver ([1]; single dose, mean ± SD): 92.91 ± 65.11 µg/g
- Highest concentration level in lung ([1]; single dose, mean ± SD): 27.27 ± 22.17 µg/g
- Highest concentration level in spleen ([1]; single dose, mean ± SD): 25.22 ± 18.67 µg/g
- concentration at 2 h ([1]; male, BALB/c, mouse, plasma, oral, at 2 h post dosing, mean ± SD): 18400 ± 14200 ng/mL
- Tmax ([1]; male, BALB/c, mouse, tissues (heart, liver, spleen, lung, kidney, brain), po, tissues, post dosing, read-out: Time to reach the maximum concentration): 2 h
- IC50 [2]: 5.27 to 6.14 µM
